Source: US20230406885A1, “CYCLIC PEPTIDES FOR TRAPPING INTERLEUKIN-1 BETA” (MERCK SHARP & DOHME LLC, priority 2022, published 2023)
*1 amine or outer side, *2 acyl side, *3 side chain or, on linkers, in order; H or OH if unused. Where a SMILES comes first, the peptide text is derived from it. [ ]: non-standard residue; d: D form. Trp(4-Cl)(βS-Me) = C[C@@H](c1c[nH]c2cccc(Cl)c12)[C@H](N)C(=O)O; Ala(piperidin-4-yl) = O=C([C@H](CC1CCN([*:3])CC1)N[*:1])[*:2]; Bip(4'-COOH) = N[C@@H](Cc1ccc(-c2ccc(C(=O)O)cc2)cc1)C(=O)O; Phe(4-COOH) = N[C@@H](Cc1ccc(C(=O)O)cc1)C(=O)O; h3Pal(5-CN) = N#Cc1cncc(CC[C@H](N)C(=O)O)c1; Pro(4R-NH2) = N[C@H]1CN[C@H](C(=O)O)C1; 1Nal = N[C@@H](Cc1cccc2ccccc12)C(=O)O; hTyr = N[C@@H](CCc1ccc(O)cc1)C(=O)O; 3Pal = N[C@@H](Cc1cccnc1)C(=O)O; 4Pal = N[C@@H](Cc1ccncc1)C(=O)O; dDab = NCC[C@@H](N)C(=O)O; Orn = NCCC[C@H](N)C(=O)O; dNMeA = CN[C@H](C)C(=O)O; Dap = NC[C@H](N)C(=O)O; Aib = CC(C)(N)C(=O)O

target: T1, Recombinant human IL-1β (Homo sapiens, UniProt P01584); test: IL-6 assay in MRC5 cells: inhibition of IL-1β induced IL-6 secretion (AlphaLISA); format: cell-based; conditions: inhibition of IL-1β induced IL-6 secretion in MRC5 cells; IL-1β pre-incubated 1 hour with compound; read-out: MRC5 IC50
T1 construct: purchased BioLegend 579404
T1 sequence (P01584 117-269): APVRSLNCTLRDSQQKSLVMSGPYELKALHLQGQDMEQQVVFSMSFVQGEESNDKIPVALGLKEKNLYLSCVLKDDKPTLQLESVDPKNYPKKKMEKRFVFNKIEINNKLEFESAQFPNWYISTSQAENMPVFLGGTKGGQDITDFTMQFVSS
Summary of the method: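 IL-1β at 2×EC80 in seeding medium (EMEM, 0.025% BSA) preincubated 1 h at ambient temperature with compound, then 3000 MRC5 cells/well added and incubated overnight at 37 °C, 5% CO2. IL-6 in conditioned medium quantified by AlphaLISA; IC50 from 4-parameter logistic fit.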

SMILES | IC50 [nM]
CC(C)C[C@@H]1NC(=O)[C@H](Cc2cccc3ccccc23)NC(=O)[C@H](Cc2ccc(-c3ccc(C(=O)O)cc3)cc2)NC(=O)CNC(=O)[C@@H](C)N(C)C(=O)[C@H](CC(=O)O)NC(=O)[C@H]([C@@H](C)c2c[nH]c3cccc(Cl)c23)NC(=O)[C@@H]2C[C@@H](N)CN2C(=O)CNC(=O)[C@H](Cc2ccc(C(=O)O)cc2)NC(=O)[C@H](Cc2c[nH]c3ccccc23)NC(=O)[C@H](Cc2ccc(-c3ccc(C(=O)O)cc3)cc2)NC(=O)[C@H](CCc2ccc(O)cc2)NC(=O)C(C)(C)NC1=O [Example 36] (cyclo([Bip(4'-COOH)]W[Phe(4-COOH)]G[Pro(4R-NH2)][Trp(4-Cl)(βS-Me)]D[dNMeA]G[Bip(4'-COOH)][1Nal]L[Aib][hTyr])) | 0.0522
C[C@@H]1C(=O)NCC(=O)N[C@@H](Cc2ccc(-c3ccc(C(=O)O)cc3)cc2)C(=O)N[C@@H](Cc2cccc3ccccc23)C(=O)N[C@@H](CCCN)C(=O)NC(C)(C)C(=O)NCC(=O)N[C@@H](Cc2ccc(-c3ccc(C(=O)O)cc3)cc2)C(=O)N[C@@H](Cc2c[nH]c3ccccc23)C(=O)N[C@@H](Cc2ccc(C(=O)O)cc2)C(=O)NCC(=O)N2C[C@H](N)C[C@H]2C(=O)N[C@@H]([C@@H](C)c2c[nH]c3cccc(Cl)c23)C(=O)N[C@@H](CC(=O)O)C(=O)N1C [Example 37] (cyclo([Bip(4'-COOH)]W[Phe(4-COOH)]G[Pro(4R-NH2)][Trp(4-Cl)(βS-Me)]D[dNMeA]G[Bip(4'-COOH)][1Nal][Orn][Aib]G)) | 0.103
C[C@@H]1C(=O)NCC(=O)N[C@@H](Cc2ccc(-c3ccc(C(=O)O)cc3)cc2)C(=O)N[C@@H](Cc2cccnc2)C(=O)N[C@@H](CO)C(=O)N[C@H](C)C(=O)N[C@@H](CCc2ccc(O)cc2)C(=O)N[C@@H](Cc2ccc(-c3ccc(C(=O)O)cc3)cc2)C(=O)N[C@@H](Cc2c[nH]c3ccccc23)C(=O)N[C@@H](Cc2ccc(C(=O)O)cc2)C(=O)NCC(=O)N2C[C@H](N)C[C@H]2C(=O)N[C@@H]([C@@H](C)c2c[nH]c3cccc(Cl)c23)C(=O)N[C@@H](CC(=O)O)C(=O)N1C [Example 38] (cyclo([Bip(4'-COOH)]W[Phe(4-COOH)]G[Pro(4R-NH2)][Trp(4-Cl)(βS-Me)]D[dNMeA]G[Bip(4'-COOH)][3Pal]S[dA][hTyr])) | 0.217
C[C@@H]1C(=O)NCC(=O)N[C@@H](Cc2ccc(-c3ccc(C(=O)O)cc3)cc2)C(=O)N[C@@H](Cc2ccncc2)C(=O)N[C@@H](CO)C(=O)N[C@H](C)C(=O)N[C@@H](CCc2ccc(O)cc2)C(=O)N[C@@H](Cc2ccc(-c3ccc(C(=O)O)cc3)cc2)C(=O)N[C@@H](Cc2c[nH]c3ccccc23)C(=O)N[C@@H](Cc2ccc(C(=O)O)cc2)C(=O)NCC(=O)N2C[C@H](N)C[C@H]2C(=O)N[C@@H]([C@@H](C)c2c[nH]c3cccc(Cl)c23)C(=O)N[C@@H](CC(=O)O)C(=O)N1C [Example 39] (cyclo([Bip(4'-COOH)]W[Phe(4-COOH)]G[Pro(4R-NH2)][Trp(4-Cl)(βS-Me)]D[dNMeA]G[Bip(4'-COOH)][4Pal]S[dA][hTyr])) | 0.232
C[C@@H]1C(=O)NCC(=O)N[C@@H](Cc2ccc(-c3ccc(C(=O)O)cc3)cc2)C(=O)N[C@@H](CC2CCNCC2)C(=O)N[C@@H](CO)C(=O)N[C@H](C)C(=O)N[C@@H](CCc2ccc(O)cc2)C(=O)N[C@@H](Cc2ccc(-c3ccc(C(=O)O)cc3)cc2)C(=O)N[C@@H](Cc2c[nH]c3ccccc23)C(=O)N[C@@H](Cc2ccc(C(=O)O)cc2)C(=O)NCC(=O)N2C[C@H](N)C[C@H]2C(=O)N[C@@H]([C@@H](C)c2c[nH]c3cccc(Cl)c23)C(=O)N[C@@H](CC(=O)O)C(=O)N1C [Example 40] (cyclo([Bip(4'-COOH)]W[Phe(4-COOH)]G[Pro(4R-NH2)][Trp(4-Cl)(βS-Me)]D[dNMeA]G[Bip(4'-COOH)][Ala(piperidin-4-yl)]S[dA][hTyr])) | 0.508
C[C@@H]1C(=O)NCC(=O)N[C@@H](Cc2ccc(-c3ccc(C(=O)O)cc3)cc2)C(=O)N[C@@H](CN)C(=O)N[C@@H](CO)C(=O)N[C@H](C)C(=O)N[C@@H](CCc2ccc(O)cc2)C(=O)N[C@@H](Cc2ccc(-c3ccc(C(=O)O)cc3)cc2)C(=O)N[C@@H](Cc2c[nH]c3ccccc23)C(=O)N[C@@H](Cc2ccc(C(=O)O)cc2)C(=O)NCC(=O)N2C[C@H](N)C[C@H]2C(=O)N[C@@H]([C@@H](C)c2c[nH]c3cccc(Cl)c23)C(=O)N[C@@H](CC(=O)O)C(=O)N1C [Example 41] (cyclo([Bip(4'-COOH)]W[Phe(4-COOH)]G[Pro(4R-NH2)][Trp(4-Cl)(βS-Me)]D[dNMeA]G[Bip(4'-COOH)][Dap]S[dA][hTyr])) | 0.469
CC(C)C[C@@H]1NC(=O)[C@H](CCCCN)NC(=O)[C@H](Cc2ccc(-c3ccc(C(=O)O)cc3)cc2)NC(=O)CNC(=O)[C@@H](C)N(C)C(=O)[C@H](CC(=O)O)NC(=O)[C@H]([C@@H](C)c2c[nH]c3cccc(Cl)c23)NC(=O)[C@@H]2C[C@@H](N)CN2C(=O)CNC(=O)[C@H](Cc2ccc(C(=O)O)cc2)NC(=O)[C@H](Cc2c[nH]c3ccccc23)NC(=O)[C@H](Cc2ccc(-c3ccc(C(=O)O)cc3)cc2)NC(=O)[C@H](CCc2ccc(O)cc2)NC(=O)[C@@H](C)NC1=O [Example 42] (cyclo([Bip(4'-COOH)]W[Phe(4-COOH)]G[Pro(4R-NH2)][Trp(4-Cl)(βS-Me)]D[dNMeA]G[Bip(4'-COOH)]KL[dA][hTyr])) | 0.627
CC(C)C[C@@H]1NC(=O)[C@H](CCCCN)NC(=O)[C@H](Cc2ccc(-c3ccc(C(=O)O)cc3)cc2)NC(=O)CNC(=O)[C@@H](C)N(C)C(=O)[C@H](CC(=O)O)NC(=O)[C@H]([C@@H](C)c2c[nH]c3cccc(Cl)c23)NC(=O)[C@@H]2C[C@@H](N)CN2C(=O)CNC(=O)[C@H](Cc2ccc(C(=O)O)cc2)NC(=O)[C@H](Cc2c[nH]c3ccccc23)NC(=O)[C@H](Cc2ccc(-c3ccc(C(=O)O)cc3)cc2)NC(=O)[C@H](CCc2ccc(O)cc2)NC(=O)[C@@H](CCN)NC1=O [Example 43] (cyclo([Bip(4'-COOH)]W[Phe(4-COOH)]G[Pro(4R-NH2)][Trp(4-Cl)(βS-Me)]D[dNMeA]G[Bip(4'-COOH)]KL[dDab][hTyr])) | 0.244
C[C@@H]1C(=O)NCC(=O)N[C@@H](Cc2ccc(-c3ccc(C(=O)O)cc3)cc2)C(=O)N[C@@H](CCCCN)C(=O)N[C@@H](CO)C(=O)N[C@H](CCN)C(=O)N[C@@H](CCc2ccc(O)cc2)C(=O)N[C@@H](Cc2ccc(-c3ccc(C(=O)O)cc3)cc2)C(=O)N[C@@H](Cc2c[nH]c3ccccc23)C(=O)N[C@@H](Cc2ccc(C(=O)O)cc2)C(=O)NCC(=O)N2C[C@H](N)C[C@H]2C(=O)N[C@@H]([C@@H](C)c2c[nH]c3cccc(Cl)c23)C(=O)N[C@@H](CC(=O)O)C(=O)N1C [Example 46] (cyclo([Bip(4'-COOH)]W[Phe(4-COOH)]G[Pro(4R-NH2)][Trp(4-Cl)(βS-Me)]D[dNMeA]G[Bip(4'-COOH)]KS[dDab][hTyr])) | 0.134

Results, then the compound that gave them:

IC50 [nM] | SMILES
0.0755 | C[C@@H]1C(=O)NCC(=O)N[C@@H](Cc2ccc(-c3ccc(C(=O)O)cc3)cc2)C(=O)N[C@@H](Cc2cccc3ccccc23)C(=O)N[C@@H](CN)C(=O)NC(C)(C)C(=O)N[C@@H](CCc2cncc(C#N)c2)C(=O)N[C@@H](Cc2ccc(-c3ccc(C(=O)O)cc3)cc2)C(=O)N[C@@H](Cc2c[nH]c3ccccc23)C(=O)N[C@@H](Cc2ccc(C(=O)O)cc2)C(=O)NCC(=O)N2C[C@H](N)C[C@H]2C(=O)N[C@@H]([C@@H](C)c2c[nH]c3cccc(Cl)c23)C(=O)N[C@@H](CC(=O)O)C(=O)N1C [Example 34] (cyclo([Bip(4'-COOH)]W[Phe(4-COOH)]G[Pro(4R-NH2)][Trp(4-Cl)(βS-Me)]D[dNMeA]G[Bip(4'-COOH)][1Nal][Dap][Aib][h3Pal(5-CN)]))
0.16 | CC(C)C[C@@H]1NC(=O)[C@H](Cc2cccc3ccccc23)NC(=O)[C@H](Cc2ccc(-c3ccc(C(=O)O)cc3)cc2)NC(=O)CNC(=O)[C@@H](C)N(C)C(=O)[C@H](CC(=O)O)NC(=O)[C@H]([C@@H](C)c2c[nH]c3cccc(Cl)c23)NC(=O)[C@@H]2C[C@@H](N)CN2C(=O)CNC(=O)[C@H](Cc2ccc(C(=O)O)cc2)NC(=O)[C@H](Cc2c[nH]c3ccccc23)NC(=O)[C@H](Cc2ccc(-c3ccc(C(=O)O)cc3)cc2)NC(=O)CNC(=O)C(C)(C)NC1=O [Example 35] (cyclo([Bip(4'-COOH)]W[Phe(4-COOH)]G[Pro(4R-NH2)][Trp(4-Cl)(βS-Me)]D[dNMeA]G[Bip(4'-COOH)][1Nal]L[Aib]G))
0.132 | CC(C)C[C@@H]1NC(=O)[C@H](CCCCN)NC(=O)[C@H](Cc2ccc(-c3ccc(C(=O)O)cc3)cc2)NC(=O)CNC(=O)[C@@H](C)N(C)C(=O)[C@H](CC(=O)O)NC(=O)[C@H]([C@@H](C)c2c[nH]c3cccc(Cl)c23)NC(=O)[C@@H]2C[C@@H](N)CN2C(=O)CNC(=O)[C@H](Cc2ccc(C(=O)O)cc2)NC(=O)[C@H](Cc2c[nH]c3ccccc23)NC(=O)[C@H](Cc2ccc(-c3ccc(C(=O)O)cc3)cc2)NC(=O)[C@H](CCc2ccc(O)cc2)NC(=O)[C@@H](CO)NC1=O [Example 44] (cyclo([Bip(4'-COOH)]W[Phe(4-COOH)]G[Pro(4R-NH2)][Trp(4-Cl)(βS-Me)]D[dNMeA]G[Bip(4'-COOH)]KL[dS][hTyr]))
0.174 | C[C@@H]1C(=O)NCC(=O)N[C@@H](Cc2ccc(-c3ccc(C(=O)O)cc3)cc2)C(=O)N[C@@H](CCCCN)C(=O)N[C@@H](CO)C(=O)N[C@H](C)C(=O)N[C@@H](CCc2ccc(O)cc2)C(=O)N[C@@H](Cc2ccc(-c3ccc(C(=O)O)cc3)cc2)C(=O)N[C@@H](Cc2c[nH]c3ccccc23)C(=O)N[C@@H](Cc2ccc(C(=O)O)cc2)C(=O)NCC(=O)N2C[C@H](N)C[C@H]2C(=O)N[C@@H]([C@@H](C)c2c[nH]c3cccc(Cl)c23)C(=O)N[C@@H](CC(=O)O)C(=O)N1C [Example 45] (cyclo([Bip(4'-COOH)]W[Phe(4-COOH)]G[Pro(4R-NH2)][Trp(4-Cl)(βS-Me)]D[dNMeA]G[Bip(4'-COOH)]KS[dA][hTyr]))
